Assay results: patent US10913727B2, “Modulators of the integrated stress pathway” (Calico Life Sciences LLC, priority 2016, dated 2021)

These compounds were tested on HEK293T cells carrying the ATF4 luciferase reporter (assay: ATF4-Luc assay, in vitro model of Vanishing Cell White Matter Disease (VWMD)). Conditions: Homo sapiens, HEK-293T, 1 μg/mL tunicamycin, 7 hours, One Glo luminescence.
Format: cell-based
Method: In order to test exemplary compounds of the invention in a cellular context, a stable VWMD cell line was first constructed. The ATF4 reporter was prepared by fusing the human full-length ATF4 5′-UTR (NCBI Accession No. BC022088.2) in front of the firefly luciferase (FLuc) coding sequence lacking the initiator methionine as described in Sidrauski et al (eLife 2013). The construct was used to produce recombinant retroviruses using standard methods and the resulting viral supernatant was used to transduce HEK293T cells, which were then subsequently selected with puromycin to generate a stable cell line.
HEK293T cells carrying the ATF4 luciferase reporter were plated on polylysine coated 384-well plates (Greiner Bio-one) at 30,000 cells per well. Cells were treated the next day with 1 μg/mL tunicamycin and 200 nM of a compound of Formula (I) for 7 hours. Luminescence was measured using One Glo (Promega) as specified by the manufacturer. Cells were maintained in DMEM with L-glutamine supplemented with 10% heat-inactivated FBS (Gibco) and Antibiotic-Antimycotic solution (Gibco).
Table 2 below summarizes the EC50 data obtained using the ATF4-Luc assay for exemplary compounds of the invention.
In the case of O=C(COc1ccc(Cl)c(F)c1)NC12CCC(NC(=O)c3cccs3)(CC1)CC2O (stereo not shown) [Compound 611, N-{4-[2-(4-chloro-3-fluorophenoxy)acetamido]-3-hydroxybicyclo[2.2.2]octan-1-yl}thiophene-2-carboxamide], the EC50 is reported as < 50 nM. For O=C(COc1ccc(Cl)c(F)c1)NC12CC(Nc3cnc(C(F)(F)F)nc3)(C1)C2 [Compound 755, 2-(4-chloro-3-fluorophenoxy)-N-(3-{[2-(trifluoromethyl)pyrimidin-5-yl]amino}bicyclo[1.1.1]pentan-1-yl)acetamide], the EC50 was 250 to 1000 nM. For Cc1nn(C)cc1-c1ccnc(NC23CC(NC(=O)COc4ccc(Cl)c(F)c4)(C2)C3)n1 [Compound 429, 2-(4-chloro-3-fluorophenoxy)-N-(3-{[4-(1,3-dimethyl-1H-pyrazol-4-yl)pyrimidin-2-yl]amino}bicyclo[1.1.1]pentan-1-yl)acetamide], the EC50 was > 2000 nM. CCc1cc(C(=O)NC23CC(NC(=O)COc4ccc5c(c4)OC(F)(F)O5)(C2)C3)n(C)n1 [Compound 399, N-(3-{2-[(2,2-difluoro-2H-1,3-benzodioxol-5-yl)oxy]acetamido}bicyclo[1.1.1]pentan-1-yl)-3-ethyl-1-methyl-1H-pyrazole-5-carboxamide] gave an EC50 of 250 to 1000 nM. O=C(COc1ccc(Cl)c(F)c1)NC12CC(NC(=O)c3csc(C4CC4)n3)(C1)C2 [Compound 655, N-{3-[2-(4-chloro-3-fluorophenoxy)acetamido]bicyclo[1.1.1]pentan-1-yl}-2-cyclopropyl-1,3-thiazole-4-carboxamide] was tested, and the EC50 was 50 to 250 nM. With CCc1nc(C(=O)NC23CC(NC(=O)COc4ccc(Cl)c(Cl)c4)(C2)C3)cs1 [Compound 698, N-{3-[2-(3,4-dichlorophenoxy)acetamido]bicyclo[1.1.1]pentan-1-yl}-2-ethyl-1,3-thiazole-4-carboxamide] the EC50 was < 50 nM. Compound O=C(COc1ccc(Cl)c(F)c1)NC12CC(NC(=O)c3ccsc3)(C1)C2 [Compound 306, N-{3-[2-(4-chloro-3-fluorophenoxy)acetamido]bicyclo[1.1.1]pentan-1-yl}thiophene-3-carboxamide] has an EC50 of 250 to 1000 nM. Cn1cc(C(=O)NC23CC(NC(=O)COc4ccc(Cl)c(F)c4)(C2)C3)ccc1=O [Compound 818, N-{3-[2-(4-chloro-3-fluorophenoxy)acetamido]bicyclo[1.1.1]pentan-1-yl}-1-methyl-6-oxo-1,6-dihydropyridine-3-carboxamide] was tested, and the EC50 was > 2000 nM. With O=C(COc1ccc(Cl)c(F)c1)NC12CC(NC(=O)c3ccc(OC4COC4)nc3)(C1)C2 [Compound 237, N-{3-[2-(4-chloro-3-fluorophenoxy)acetamido]bicyclo[1.1.1]pentan-1-yl}-6-[(oxetan-3-yl)oxy]pyridine-3-carboxamide] the EC50 was 250 to 1000 nM. Work on COc1csc(C(=O)NC23CC(NC(=O)COc4ccc(Cl)c(F)c4)(C2)C3)c1 [Compound 857, N-{3-[2-(4-chloro-3-fluorophenoxy)acetamido]bicyclo[1.1.1]pentan-1-yl}-4-methoxythiophene-2-carboxamide] yielded an EC50 of 50 to 250 nM. In the case of O=C(COc1ccc(Cl)c(F)c1)NC12CCC(NC(=O)c3ccc(C(F)(F)F)nc3)(CC1)C(F)C2 (stereo not shown) [Compound 372, N-{4-[2-(4-chloro-3-fluorophenoxy)acetamido]-2-fluorobicyclo[2.2.2]octan-1-yl}-6-(trifluoromethyl)pyridine-3-carboxamide], the EC50 is reported as 250 to 1000 nM. For Cn1cnc2cc(C(=O)NC34CC(NC(=O)COc5ccc(Cl)c(F)c5)(C3)C4)ccc21 [Compound 767, N-{3-[2-(4-chloro-3-fluorophenoxy)acetamido]bicyclo[1.1.1]pentan-1-yl}-1-methyl-1H-benzimidazole-5-carboxamide], the EC50 was > 2000 nM. Work on Cc1nc(C(F)(F)F)c(C(=O)NC23CCC(NC(=O)COc4ccc(Cl)c(F)c4)(CC2)C(O)C3)s1 (stereo not shown) [Compound 504, N-{4-[2-(4-chloro-3-fluorophenoxy)acetamido]-3-hydroxybicyclo[2.2.2]octan-1-yl}-2-methyl-4-(trifluoromethyl)-1,3-thiazole-5-carboxamide] yielded an EC50 of 50 to 250 nM. O=C(COc1ccc(Cl)cc1)NC12CC(Nc3nnc(-c4ccc(Cl)cc4)s3)(C1)C2 [Compound 271, 2-(4-chlorophenoxy)-N-(3-{[5-(4-chlorophenyl)-1,3,4-thiadiazol-2-yl]amino}bicyclo[1.1.1]pentan-1-yl)acetamide] was tested, and the EC50 was 250 to 1000 nM. For O=C(COc1ccc(Cl)c(F)c1)NC12CC(Nc3ccc(C(F)(F)F)nc3)(C1)C2 [Compound 104, 2-(4-chloro-3-fluorophenoxy)-N-(3-{[6-(trifluoromethyl)pyridin-3-yl]amino}bicyclo[1.1.1]pentan-1-yl)acetamide], the EC50 was 250 to 1000 nM. Compound O=C(COc1ccc(Cl)c(Cl)c1)NC12CC(NC(=O)c3cnc(C(F)(F)F)s3)(C1)C2 [Compound 646, N-{3-[2-(3,4-dichlorophenoxy)acetamido]bicyclo[1.1.1]pentan-1-yl}-2-(trifluoromethyl)-1,3-thiazole-5-carboxamide] has an EC50 of 50 to 250 nM. COc1ncc(F)cc1C(=O)NC12CC(NC(=O)COc3ccc(Cl)c(F)c3)(C1)C2 [Compound 863, N-{3-[2-(4-chloro-3-fluorophenoxy)acetamido]bicyclo[1.1.1]pentan-1-yl}-5-fluoro-2-methoxypyridine-3-carboxamide] was tested, and the EC50 was > 2000 nM. O=C(COc1ccc(Cl)c(F)c1)NC12CC(NC(=O)c3ccc(CO)cn3)(C1)C2 [Compound 159, N-{3-[2-(4-chloro-3-fluorophenoxy)acetamido]bicyclo[1.1.1]pentan-1-yl}-5-(hydroxymethyl)pyridine-2-carboxamide] showed an EC50 of 250 to 1000 nM. In the case of Cc1ccc(C(=O)NC23CC(NC(=O)COc4ccc(Cl)c(F)c4)(C2)C3)nc1 [Compound 146, N-{3-[2-(4-chloro-3-fluorophenoxy)acetamido]bicyclo[1.1.1]pentan-1-yl}-5-methylpyridine-2-carboxamide], the EC50 is reported as 50 to 250 nM. With O=C(COc1ccc(Cl)c(F)c1)NC12CC(NC(=O)c3coc(-c4ccc(Cl)c(F)c4)n3)(C1)C2 [Compound 108, N-{3-[2-(4-chloro-3-fluorophenoxy)acetamido]bicyclo[1.1.1]pentan-1-yl}-2-(4-chloro-3-fluorophenyl)-1,3-oxazole-4-carboxamide] the EC50 was < 50 nM. O=C(COc1ccc(Cl)c(F)c1)NC12CC(NC(=O)c3csc(C(F)(F)F)n3)(C1)C2 [Compound 641, N-{3-[2-(4-chloro-3-fluorophenoxy)acetamido]bicyclo[1.1.1]pentan-1-yl}-2-(trifluoromethyl)-1,3-thiazole-4-carboxamide] was tested, and the EC50 was < 50 nM. Work on Cc1cc(C(=O)NC23CCC(NC(=O)COc4ccc(Cl)c(F)c4)(CC2)[C@H](O)C3)n(C)n1 (single isomer, unassigned) [Compound 486] yielded an EC50 of 50 to 250 nM. For COc1cccc(C(=O)NC23CC(NC(=O)COc4ccc(Cl)c(F)c4)(C2)C3)n1 [Compound 829, N-{3-[2-(4-chloro-3-fluorophenoxy)acetamido]bicyclo[1.1.1]pentan-1-yl}-6-methoxypyridine-2-carboxamide], the EC50 was 50 to 250 nM. In the case of CCc1cc(C(=O)NC23CC(NC(=O)COc4ccc(Cl)c(Cl)c4)(C2)C3)n(C)n1 [Compound 584, N-{3-[2-(3,4-dichlorophenoxy)acetamido]bicyclo[1.1.1]pentan-1-yl}-3-ethyl-1-methyl-1H-pyrazole-5-carboxamide], the EC50 is reported as < 50 nM. In the case of CC(C)Oc1ccc(C(=O)NC23CC(NC(=O)COc4ccc(Cl)cc4)(C2)C3)nc1 [Compound 185, N-{3-[2-(4-chlorophenoxy)acetamido]bicyclo[1.1.1]pentan-1-yl}-5-[(propan-2-yl)oxy]pyridine-2-carboxamide], the EC50 is reported as 250 to 1000 nM. With O=C(COc1ccc(Cl)c(Cl)c1)NC12CC(NC(=O)c3cnoc3)(C1)C2 [Compound 921, N-{3-[2-(3,4-dichlorophenoxy)acetamido]bicyclo[1.1.1]pentan-1-yl}-1,2-oxazole-4-carboxamide] the EC50 was 1000 to 2000 nM. O=C(COc1ccc(Cl)c(F)c1)NC12CC(NC(=O)c3cc(-n4cncn4)ccn3)(C1)C2 [Compound 481, N-{3-[2-(4-chloro-3-fluorophenoxy)acetamido]bicyclo[1.1.1]pentan-1-yl}-4-(1H-1,2,4-triazol-1-yl)pyridine-2-carboxamide] was tested, and the EC50 was 1000 to 2000 nM. COc1cc(C(=O)NC23CCC(NC(=O)COc4ccc(Cl)c(F)c4)(C2)C3)on1 [Compound 707, N-{4-[2-(4-chloro-3-fluorophenoxy)acetamido]bicyclo[2.1.1]hexan-1-yl}-3-methoxy-1,2-oxazole-5-carboxamide] gave an EC50 of 250 to 1000 nM. Compound O=C(COc1ccc(Cl)c(F)c1)NC12CCC(NC(=O)c3cc(C4CC4)no3)(CC1)C(O)C2 (stereo not shown) [Compound 331, N-{4-[2-(4-chloro-3-fluorophenoxy)acetamido]-2-hydroxybicyclo[2.2.2]octan-1-yl}-3-cyclopropyl-1,2-oxazole-5-carboxamide] has an EC50 of 250 to 1000 nM. In the case of O=C(COc1ccc(Cl)c(F)c1)NC12CC(NC(=O)c3cnc(-c4ccc(Cl)c(F)c4)o3)(C1)C2 [Compound 105, N-{3-[2-(4-chloro-3-fluorophenoxy)acetamido]bicyclo[1.1.1]pentan-1-yl}-2-(4-chloro-3-fluorophenyl)-1,3-oxazole-5-carboxamide], the EC50 is reported as < 50 nM. In the case of Cn1ncc(C(=O)NC23CC(NC(=O)COc4ccc(Cl)c(F)c4)(C2)C3)c1C(F)(F)F [Compound 874, N-{3-[2-(4-chloro-3-fluorophenoxy)acetamido]bicyclo[1.1.1]pentan-1-yl}-1-methyl-5-(trifluoromethyl)-1H-pyrazole-4-carboxamide], the EC50 is reported as > 2000 nM.
